# Experimental data taken from patent US20240009170A1, “INHIBITION OF GLYCOGEN SYNTHASE KINASE-3 (GSK-3)” (Brown University, priority 2020, published 2024).
# Tests used:
# [1] = system: healthy donor-derived CD8+ T cells; assay: Cytokine profile of immune cell culture supernatant, donor-derived CD8+ T cells; assay type: cell-based, Human; conditions: 1 μM, 48 hours
# Protocol: Isolation of donor derived CD8+ T cells. An Easy Step Human CD8+ T Cell Isolation Kit was used to isolated CD8+ T cells from a donor PBMC sample via negative selection (Cat #, 17913, Stem Cell Technologies, Vancouver, Canada).
# (§1) Collection of cell culture supernatants used in cytokine measurements. Cells were plated at 3.5×10^4 cells in a 48-well plate (Thermo Fisher Scientific, Waltham, MA, USA) in complete medium and incubated at 37° C. with 5% CO2. At twenty-four hours after plating, almost all the tumor cells were adherent to the bottom of the flask and the complete medium was replaced with drug-containing medium. Subsequently, the culture supernatants were collected after forty-eight hours of incubation and were frozen at −80° C. until the measurement of cytokines was performed. The day of analysis, samples were thawed and centrifuged to remove cellular debris.
# (§2) Human cytokine profiling. Human cell line culture supernatants were analyzed using an R&D systems Human Premixed Multi-Analyte Kit (R&D Systems, Inc., Minneapolis, MN, USA) and a Luminex 200 Instrument (LX200-XPON-RUO, Luminex Corporation, Austin, TX, USA) according to the manufacturer's instructions. […]
# (§3) 9-ING-41 increases secreted cytotoxic proteins IFN-v, Granzyme B, and TRAIL in immune cells. […] Here, the inventors determined how 9-ING-41 treatment impacts the immune cell cytokinome. […]
# [2] = system: colorectal cancer cells; assay: Co-culture with pre-treatment of effector or target cell population; assay type: cell-based, Human; conditions: target cells pre-treated before co-culture
# Protocol: Co-culture experiments were conducted with GFP+ SW480 colorectal cancer cells and either NK-92 natural killer cells or TALL-104 T cells at various effector/target ratios in a 48-well plate, in the presence or absence of 9-ING-41. Follow-up experiments compared the effect of pre-treating either the effector or the target cell population with 9-ING-41 before the co-culture experiment was started.
# [3] = system: HCT-116; assay: Flow cytometric analysis of cell surface markers, HCT-116; assay type: cell-based, Human; conditions: post-treatment
# Protocol: FIG. 12 is a set of bar graphs showing flow cytometric analyses of cell surface markers of tumor and immune cells treated with 9-ING-41 in vitro. FIG. 12(A) HCT-116, FIG. 12(B) HT-29, FIG. 12(C) TALL-104, and FIG. 12(D) NK-92 cells were treated with indicated concentrations of 9-ING-41 for forty-eight hours, stained for indicated cell surface marker expression, and analyzed with a BD LSRII. Statistical significance was determined using two-tailed unpaired T tests.
# To further understand the differential 9-ING-41-mediated impacts on protein expression, the inventors treated tumor and immune cells in vitro with 9-ING-41, then performed a flow cytometric analysis for expression of cell surface markers. […] A similar trend occurred in HT-29 cells, although not statistically significant. […] FIG. 10(C). […] FIG. 10(D).
# [4] = system: advanced malignancies; conditions: cited from earlier work
# [5] = system: NK-92 cells; assay: Cytokine profile of immune cell culture supernatant, NK-92; assay type: cell-based, Human; conditions: 1 μM, 48 hours
# Protocol: as §1, §2, §3
# [6] = system: human colorectal cell lines (HCT-116, HT-29, KM12C); assay: Cytokine, chemokine and growth factor profile of tumor cell culture supernatant (Luminex 200); assay type: cell-based
# Protocol: as §1
# Human cytokine profiling. Human cell line culture supernatants were analyzed using an R&D systems Human Premixed Multi-Analyte Kit (R&D Systems, Inc., Minneapolis, MN, USA) and a Luminex 200 Instrument (LX200-XPON-RUO, Luminex Corporation, Austin, TX, USA) according to the manufacturer's instructions. Sample levels of TNF-α, 4-1BB/TNFRSF9/CD137, IL-8/CXCL8, Ferritin, IFN-β, IL-10, CCL2/JE/MCP-1, VEGF, CXCL13/BLC/BCA-1, IFN-γ, CCL20/MIP-3 α, CCL3/MIP-1 α, CCL22/MDC, CCL4/MIP-1 β, Fas Ligand/TNFSF6, IL-17/IL-17A, IL-2, BAFF/BLyS/TNFSF13B, GM-CSF, CXCLS/ENA-78, TRANCE/TNFSF11/RANK L, CXCL9/MIG, G-CSF, IFN-γ R1/CD119, VEGFR3/Flt-4, C-Reactive Protein/CRP, CXCL11/I-TAC, IL-21, CXCL14/BRAK, IL-6, Fas/TNFRSF6/CD95, TRAIL R3/TNFRSF10C, IL-4, CCL5/RANTES, PD-L1/B7-H1, CCL7/MCP-3/MARC, Chitinase 3-like 1, CXCL10/IP-10/CRG-2, IL-1β/IL-1F2, IL-7, Prolactin, CCL8/MCP-2, TRAIL R2/TNFRSF10B, M-CSF, IL-15, Granzyme B, IFN-α, TREM-1, IL-12/IL-23 p40, TRAIL/TNFSF10, CCL11/Eotaxin, and IL-18/IL-1F4. Sample values are reported in picograms per milliliter (pg/mL).
# Cells were treated with 9-ING-41, a selective and potent small molecule inhibitor of GSK-3β, at doses up to 100 μM for seventy-two hours to determine IC10, IC30, IC50, and IC70. Cytokine, chemokine, and growth factor levels were analyzed in the tumor cell culture supernatants after treatment at IC10, IC30, IC50, and IC70 for forty-eight hours using a Luminex 200 multiplexing instrument.
smiles,measurement,setting,value
Cn1cc(C2=C(c3coc4ccc(F)cc34)C(=O)NC2=O)c2cc3c(cc21)OCO3 [9-ING-41],"all three cytotoxic molecules (IFN-γ, granzyme B, TRAIL)",[1],increases
same,cell-killing after pre-treatment of the target tumor cells,[2],bolstered cell-killing
same,DR5 expression,[3],significant decreased
same,ICAM-1 expression,[3],significant increase
same,HLA-E and PD-L1 surface expression,[3]; 48 hours,statistically significant increase
same,clinical response,"[4]; a patient with BRAF V600E metastatic melanoma, previously treated",complete response
same,increased infection or opportunistic/unusual infections,[4]; even in patients with extensive prior cytotoxic therapy,no evidence of increased infection
same,attributable Grade 3 or 4 serious adverse events,"[4]; monotherapy and combination with standard chemotherapy, NCT03678883",without attributable Grade 3 or 4 serious adverse events
same,myelosuppression,[4]; patients,not associated with myelosuppression of any degree
same,safety profile,[4]; preliminary results from ongoing clinical trials,excellent safety profile devoid of myelosuppressive and immunosuppressive effects
same,IFN-γ and TRAIL,[5],increases
same,concentration of secreted granzyme B,[5],decreases
same,shed PD-L1,"[6]; colorectal cancer cell lines, regression slope analysis, 48 hours",decreases
same,overall cytokine levels,"[6]; increasing doses (IC10-IC70), 48 hours",decreasing trend
same,VEGF,"[6]; increasing doses, 48 hours, supernatant",most prominently decreased
same,expression of chemokine CXCL14 (BRAK),"[6]; increasing doses, supernatant",increase
same,macrophage colony-stimulating factor (M-CSF),[6]; supernatant,decrease
